Data from PubChem BioAssay (NCI).
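How tested: cells in 96-well plates exposed to compound for 48 hours at five concentrations. TGI: total growth inhibition.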

Tests used:
Experiment in all cases: inhibition of tumour cell growth, NCI panel, 48 h
SF-295 CNS = test system: SF-295 CNS
HS 578T breast = test system: HS 578T breast
A498 renal = test system: A498 renal
NCI-H23 lung = test system: NCI-H23 lung
UACC-62 melanoma = test system: UACC-62 melanoma
MDA-MB-231 breast = test system: MDA-MB-231 breast
SK-MEL-2 melanoma = test system: SK-MEL-2 melanoma
OVCAR-3 ovarian = test system: OVCAR-3 ovarian
786-0 renal = test system: 786-0 renal
MCF7 breast = test system: MCF7 breast
SF-539 CNS = test system: SF-539 CNS
HCT-15 colon = test system: HCT-15 colon
CAKI-1 renal = test system: CAKI-1 renal
SW-620 colon = test system: SW-620 colon
K-562 leukemia = test system: K-562 leukemia
HT29 colon = test system: HT29 colon
OVCAR-5 ovarian = test system: OVCAR-5 ovarian
EKVX NSCLC = test system: EKVX NSCLC
HOP-62 NSCLC = test system: HOP-62 NSCLC
PC-3 prostate = test system: PC-3 prostate
COLO 205 colon = test system: COLO 205 colon
MOLT-4 leukemia = test system: MOLT-4 leukemia
UACC-257 melanoma = test system: UACC-257 melanoma
MDA-MB-435 = test system: MDA-MB-435
ACHN renal = test system: ACHN renal
HOP-92 NSCLC = test system: HOP-92 NSCLC
NCI-H226 lung = test system: NCI-H226 lung
MALME-3M melanoma = test system: MALME-3M melanoma
HL-60(TB) leukemia = test system: HL-60(TB) leukemia
TK-10 renal = test system: TK-10 renal
M14 melanoma = test system: M14 melanoma
OVCAR-8 ovarian = test system: OVCAR-8 ovarian
LOX IMVI melanoma = test system: LOX IMVI melanoma
CCRF-CEM leukemia = test system: CCRF-CEM leukemia
SNB-75 CNS = test system: SNB-75 CNS
SNB-19 CNS = test system: SNB-19 CNS
A549 NSCLC = test system: A549 NSCLC
NCI/ADR-RES ovarian = test system: NCI/ADR-RES ovarian
RXF 393 renal = test system: RXF 393 renal
NCI-H460 lung = test system: NCI-H460 lung
OVCAR-4 ovarian = test system: OVCAR-4 ovarian
SK-MEL-5 melanoma = test system: SK-MEL-5 melanoma
IGROV1 ovarian = test system: IGROV1 ovarian
SK-OV-3 ovarian = test system: SK-OV-3 ovarian
BT-549 breast = test system: BT-549 breast
HCT-116 colon = test system: HCT-116 colon
NCI-H522 lung = test system: NCI-H522 lung
T-47D breast = test system: T-47D breast
MDA-N = test system: MDA-N
RPMI-8226 leukemia = test system: RPMI-8226 leukemia
KM12 colon = test system: KM12 colon
U251 CNS = test system: U251 CNS
SR leukemia = test system: SR leukemia
UO-31 renal = test system: UO-31 renal
SF-268 CNS = test system: SF-268 CNS
HCC-2998 colon = test system: HCC-2998 colon
DU-145 prostate = test system: DU-145 prostate
SK-MEL-28 melanoma = test system: SK-MEL-28 melanoma
SN12C renal = test system: SN12C renal

Cc1ccc(S(=O)(=O)NC(CCC(=O)NN)C(=O)NN)cc1 (centres undefined)
TGI (SF-295 CNS): > 100 µM | TGI (HS 578T breast): > 100 µM | TGI (A498 renal): > 100 µM | TGI (NCI-H23 lung): > 100 µM | TGI (UACC-62 melanoma): > 100 µM | TGI (MDA-MB-231 breast): > 100 µM | TGI (SK-MEL-2 melanoma): > 100 µM | TGI (OVCAR-3 ovarian): > 100 µM | TGI (786-0 renal): > 100 µM | TGI (MCF7 breast): > 100 µM | TGI (SF-539 CNS): > 100 µM | TGI (HCT-15 colon): > 100 µM | TGI (CAKI-1 renal): > 100 µM | TGI (SW-620 colon): > 100 µM | TGI (K-562 leukemia): > 100 µM | TGI (HT29 colon): > 100 µM | TGI (OVCAR-5 ovarian): > 100 µM | TGI (EKVX NSCLC): > 100 µM | TGI (HOP-62 NSCLC): > 100 µM | TGI (PC-3 prostate): > 100 µM | TGI (COLO 205 colon): > 100 µM | TGI (MOLT-4 leukemia): > 100 µM | TGI (UACC-257 melanoma): > 100 µM | TGI (MDA-MB-435): > 100 µM | TGI (ACHN renal): > 100 µM | TGI (HOP-92 NSCLC): > 100 µM | TGI (NCI-H226 lung): > 100 µM | TGI (MALME-3M melanoma): > 100 µM | TGI (HL-60(TB) leukemia): > 100 µM | TGI (TK-10 renal): > 100 µM | TGI (M14 melanoma): > 100 µM | TGI (OVCAR-8 ovarian): > 100 µM | TGI (LOX IMVI melanoma): > 100 µM | TGI (CCRF-CEM leukemia): > 100 µM | TGI (SNB-75 CNS): > 100 µM | TGI (SNB-19 CNS): > 100 µM | TGI (A549 NSCLC): > 100 µM | TGI (NCI/ADR-RES ovarian): > 100 µM | TGI (RXF 393 renal): > 100 µM | TGI (NCI-H460 lung): 21.6 µM | TGI (OVCAR-4 ovarian): > 100 µM | TGI (SK-MEL-5 melanoma): > 100 µM | TGI (IGROV1 ovarian): > 100 µM | TGI (SK-OV-3 ovarian): > 100 µM | TGI (BT-549 breast): > 100 µM | TGI (HCT-116 colon): > 100 µM | TGI (NCI-H522 lung): > 100 µM | TGI (T-47D breast): > 100 µM | TGI (MDA-N): > 100 µM | TGI (RPMI-8226 leukemia): > 100 µM | TGI (KM12 colon): > 100 µM | TGI (U251 CNS): > 100 µM | TGI (SR leukemia): > 100 µM | TGI (UO-31 renal): > 100 µM | TGI (SF-268 CNS): > 100 µM

CC1(C)CC(=O)C(Cc2ccccc2)(Cc2ccccc2)C(=O)C1
TGI (SF-295 CNS): > 100 µM | TGI (HS 578T breast): > 100 µM | TGI (NCI-H23 lung): > 100 µM | TGI (UACC-62 melanoma): > 100 µM | TGI (MDA-MB-231 breast): > 100 µM | TGI (SK-MEL-2 melanoma): > 100 µM | TGI (786-0 renal): > 100 µM | TGI (MCF7 breast): > 100 µM | TGI (SF-539 CNS): > 100 µM | TGI (HCT-15 colon): > 100 µM | TGI (HCC-2998 colon): > 100 µM | TGI (CAKI-1 renal): > 100 µM | TGI (SW-620 colon): > 100 µM | TGI (K-562 leukemia): > 100 µM | TGI (HT29 colon): > 100 µM | TGI (OVCAR-5 ovarian): > 100 µM | TGI (EKVX NSCLC): > 100 µM | TGI (HOP-62 NSCLC): > 100 µM | TGI (PC-3 prostate): > 100 µM | TGI (COLO 205 colon): > 100 µM | TGI (MOLT-4 leukemia): > 100 µM | TGI (UACC-257 melanoma): > 100 µM | TGI (DU-145 prostate): > 100 µM | TGI (ACHN renal): > 100 µM | TGI (NCI-H226 lung): > 100 µM | TGI (MALME-3M melanoma): > 100 µM | TGI (HL-60(TB) leukemia): > 100 µM | TGI (TK-10 renal): > 100 µM | TGI (M14 melanoma): > 100 µM | TGI (OVCAR-8 ovarian): > 100 µM | TGI (LOX IMVI melanoma): > 100 µM | TGI (SK-MEL-28 melanoma): > 100 µM | TGI (CCRF-CEM leukemia): > 100 µM | TGI (SNB-75 CNS): > 100 µM | TGI (SNB-19 CNS): > 100 µM | TGI (A549 NSCLC): > 100 µM | TGI (NCI/ADR-RES ovarian): > 100 µM | TGI (SN12C renal): > 100 µM | TGI (RXF 393 renal): > 100 µM | TGI (NCI-H460 lung): > 100 µM | TGI (OVCAR-4 ovarian): > 100 µM | TGI (SK-MEL-5 melanoma): > 100 µM | TGI (IGROV1 ovarian): > 100 µM | TGI (SK-OV-3 ovarian): > 100 µM | TGI (BT-549 breast): > 100 µM | TGI (HCT-116 colon): > 100 µM | TGI (NCI-H522 lung): > 100 µM | TGI (T-47D breast): > 100 µM | TGI (MDA-N): > 100 µM | TGI (KM12 colon): > 100 µM | TGI (U251 CNS): > 100 µM | TGI (SR leukemia): > 100 µM | TGI (UO-31 renal): > 100 µM | TGI (SF-268 CNS): > 100 µM

COc1ccccc1N1C(=O)C2C3c4ccccc4C(OC(C)=O)(c4ccccc43)C2C1=O (centres undefined)
TGI (SF-295 CNS): > 100 µM | TGI (HS 578T breast): 52.1 µM | TGI (A498 renal): > 100 µM | TGI (NCI-H23 lung): > 100 µM | TGI (UACC-62 melanoma): > 100 µM | TGI (MDA-MB-231 breast): > 100 µM | TGI (OVCAR-3 ovarian): > 100 µM | TGI (786-0 renal): > 100 µM | TGI (MCF7 breast): > 100 µM | TGI (SF-539 CNS): > 100 µM | TGI (HCT-15 colon): > 100 µM | TGI (HCC-2998 colon): > 100 µM | TGI (CAKI-1 renal): > 100 µM | TGI (SW-620 colon): > 100 µM | TGI (K-562 leukemia): > 100 µM | TGI (HT29 colon): > 100 µM | TGI (OVCAR-5 ovarian): > 100 µM | TGI (EKVX NSCLC): > 100 µM | TGI (HOP-62 NSCLC): > 100 µM | TGI (PC-3 prostate): > 100 µM | TGI (COLO 205 colon): > 100 µM | TGI (MOLT-4 leukemia): > 100 µM | TGI (UACC-257 melanoma): > 100 µM | TGI (DU-145 prostate): > 100 µM | TGI (ACHN renal): > 100 µM | TGI (NCI-H226 lung): > 100 µM | TGI (MALME-3M melanoma): > 100 µM | TGI (HL-60(TB) leukemia): > 100 µM | TGI (TK-10 renal): > 100 µM | TGI (M14 melanoma): > 100 µM | TGI (OVCAR-8 ovarian): > 100 µM | TGI (LOX IMVI melanoma): > 100 µM | TGI (SK-MEL-28 melanoma): > 100 µM | TGI (CCRF-CEM leukemia): > 100 µM | TGI (SNB-75 CNS): 38.8 µM | TGI (SNB-19 CNS): > 100 µM | TGI (A549 NSCLC): > 100 µM | TGI (NCI/ADR-RES ovarian): > 100 µM | TGI (SN12C renal): > 100 µM | TGI (RXF 393 renal): > 100 µM | TGI (NCI-H460 lung): > 100 µM | TGI (OVCAR-4 ovarian): > 100 µM | TGI (SK-MEL-5 melanoma): > 100 µM | TGI (IGROV1 ovarian): > 100 µM | TGI (SK-OV-3 ovarian): > 100 µM | TGI (BT-549 breast): > 100 µM | TGI (HCT-116 colon): > 100 µM | TGI (T-47D breast): > 100 µM | TGI (MDA-N): > 100 µM | TGI (RPMI-8226 leukemia): > 100 µM | TGI (KM12 colon): > 100 µM | TGI (U251 CNS): > 100 µM | TGI (SR leukemia): > 100 µM | TGI (UO-31 renal): > 100 µM | TGI (SF-268 CNS): > 100 µM
